Data taken from patent US20170184604A1, “DD1ALPHA RECEPTOR AND USES THEREOF IN IMMUNE DISORDERS” (THE GENERAL HOSPITAL CORPORATION, priority 2014, published 2017).

Assays:
[1] = tested on: wt- or DD1α−/− mouse CD4+ T cells; test: Ig fusion protein binding to CD4+ T cells from Wt and DD1α−/− mice
Experimental: (§1) FIGS. 6A-6E show physical association of DD1α with PD1 but not with PD-L1. (FIG. 6A) Interaction of DD1α with PD1 or DD1α. […] The bound Ig fusion proteins were detected with anti-Ig-APC. Empty vector (pcDNA3.1)-transfected cells stained with Ig proteins are shown as a negative control (gray filled) and other staining is shown as black open. (FIG. 6B) DD1α binds to both DD1α and PD1 on CD4+ T cells. Purified CD4+ T cells from Wt and DD1α−/− mice were assayed for binding to Ig fused DD1α or PD1 proteins. Cells were incubated with DD1α-Ig (open), PD1-Ig (open), or control Ig proteins (gray filled) and the bound Ig fusion proteins were detected by anti-Ig-APC. […] The bound Ig fusion proteins were detected by anti-Ig-APC. Binding amounts were determined by percentage of APC positive cells compared to control Ig protein-bound cells. (FIG. 6C) Ig-pulldown experiments show DD1α interaction with both DD1α and PD1. […] The bead bound proteins were eluted and determined by western blot analysis using anti-HA antibody (asterisks). […] The bead bound proteins were eluted and detected by western blot analysis with anti-DD1α or anti-PD1 antibody (asterisk). […] The levels of indicated proteins were analyzed by western blot analysis. Total RNAs from control siRNA or p53 siRNA transfected MCF7 cells were assessed for mRNA levels of PD1 or PD-L1 by real-time quantitative PCR. […]

[2] = biological target: T1, PD-1 (Homo sapiens, UniProt Q15116); test: Ig fusion protein-pull down assay; type: binding
T1 construct: full length human PD-1 and Tim3 cDNA (Sino biological) were cloned into pcDNA3.1(−) tagged with HA at C-terminus; host or cells: HEK293T
Experimental: as §1

[3] = tested on: DD1α; test: Ig fusion protein-pull down assay; type: binding, human
Experimental: FIGS. 6A-6E show physical association of DD1α with PD1 but not with PD-L1. (FIG. 6A) Interaction of DD1α with PD1 or DD1α. […] The bound Ig fusion proteins were detected with anti-Ig-APC. Empty vector (pcDNA3.1)-transfected cells stained with Ig proteins are shown as a negative control (gray filled) and other staining is shown as black open. (FIG. 6B) DD1α binds to both DD1α and PD1 on CD4+ T cells. Purified CD4+ T cells from Wt and DD1α−/− mice were assayed for binding to Ig fused DD1α or PD1 proteins. Cells were incubated with DD1α-Ig (open), PD1-Ig (open), or control Ig proteins (gray filled) and the bound Ig fusion proteins were detected by anti-Ig-APC. […] The bound Ig fusion proteins were detected by anti-Ig-APC. Binding amounts were determined by percentage of APC positive cells compared to control Ig protein-bound cells. (FIG. 6C) Ig-pulldown experiments show DD1α interaction with both DD1α and PD1. […] The bead bound proteins were eluted and determined by western blot analysis using anti-HA antibody (asterisks). (FIG. 6D) Ig fusion proteins (control Ig, DD1α-Ig, or PD1-Ig) were incubated with lysates from Nutlin-3-treated MCF7 cells and pulled down using protein A/G agarose. The bead bound proteins were eluted and detected by western blot analysis with anti-DD1α or anti-PD1 antibody (asterisk). (FIG. 6E) p53-mediated induction of PD1 and PD-L1. MCF7 cells were treated by Nutlin-3 (10 μM) for 1 to 3 days. MCF7 cells were transfected with control siRNA or p53 siRNA for 24 hours and treated with CPT (500 nM) or DMSO (control) for 1 and 2 days. The levels of indicated proteins were analyzed by western blot analysis. Total RNAs from control siRNA or p53 siRNA transfected MCF7 cells were assessed for mRNA levels of PD1 or PD-L1 by real-time quantitative PCR. PD1 or PD-L1 mRNA levels were normalized to 36B4 expression and shown as mean±SD (n=3). Protein levels of PD1 and PD-L1 were examined in EJ-p53tet cells in the absence or presence of tetracycline (tet), ZR75-1 cells treated with CPT (500 nM), or A375 cells exposed to 13 Gy ionizing irradiation for the indicated times.
Ig fusion proteins (control Ig, DD1α-Ig, or PD1-Ig) were incubated with lysates from Nutlin-3-treated MCF7 cells and pulled down using proten A/G agarose. The bead bound proteins were eluted and detected by western blot analysis with anti-DD1α or anti-PD1 antibody.
Based on the results that both PD-1 and DD1α receptors on T cells contribute to the co-inhibitory roles for DD1α(FIG. 5), it was tested whether DD1α could physically and functionally associate with PD-1 receptor. […] To confirm the specificity of this interaction, the inventors carried out Ig fusion protein-pull down assays using lysates from PD-1, DD1α, or TIM3-transfected 293T cells. […]

[4] = tested on: DD1α; test: Ig fusion protein staining of 293T transfectants (flow cytometry); type: binding, human; settings: cell surface staining
Experimental: (§2) The bound Ig fusion proteins were detected with anti-Ig-APC. Empty vector (pcDNA3.1)-transfected cells stained with Ig proteins are shown as a negative control (gray filled) and other staining is shown as black open. […] Purified CD4+ T cells from Wt and DD1α−/− mice were assayed for binding to Ig fused DD1α or PD1 proteins. […] The bound Ig fusion proteins were detected by anti-Ig-APC. Binding amounts were determined by percentage of APC positive cells compared to control Ig protein-bound cells. […] The bead bound proteins were eluted and determined by western blot analysis using anti-HA antibody (asterisks). […] The bead bound proteins were eluted and detected by western blot analysis with anti-DD1α or anti-PD1 antibody (asterisk). […] MCF7 cells were treated by Nutlin-3 (10 μM) for 1 to 3 days. MCF7 cells were transfected with control siRNA or p53 siRNA for 24 hours and treated with CPT (500 nM) or DMSO (control) for 1 and 2 days. The levels of indicated proteins were analyzed by western blot analysis. Total RNAs from control siRNA or p53 siRNA transfected MCF7 cells were assessed for mRNA levels of PD1 or PD-L1 by real-time quantitative PCR.

[5] = biological target: T2, TIM-3 (Homo sapiens, UniProt Q8TDQ0); test: as above; type: binding; settings: cell surface staining
T2 construct: full length human PD-1 and Tim3 cDNA (Sino biological) were cloned into pcDNA3.1(−) tagged with HA at C-terminus; host or cells: HEK293T
Experimental: as §2

[6] = biological target: T1, PD-1; test: as above; type: binding; settings: cell surface staining
Experimental: as §2

[7] = lysates from transfected 293T cells
[8] = lysates of Nutlin-3-treated MCF7 cells

Sequence of DD1α (Q9H7M9 33-311): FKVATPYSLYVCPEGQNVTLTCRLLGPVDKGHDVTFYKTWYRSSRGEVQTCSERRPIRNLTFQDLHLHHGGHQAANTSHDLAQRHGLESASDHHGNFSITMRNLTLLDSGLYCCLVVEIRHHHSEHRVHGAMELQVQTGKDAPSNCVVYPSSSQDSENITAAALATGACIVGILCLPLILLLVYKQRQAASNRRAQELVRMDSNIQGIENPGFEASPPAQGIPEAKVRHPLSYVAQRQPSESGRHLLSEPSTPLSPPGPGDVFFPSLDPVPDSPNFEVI
T1 sequence (Q15116 25-288): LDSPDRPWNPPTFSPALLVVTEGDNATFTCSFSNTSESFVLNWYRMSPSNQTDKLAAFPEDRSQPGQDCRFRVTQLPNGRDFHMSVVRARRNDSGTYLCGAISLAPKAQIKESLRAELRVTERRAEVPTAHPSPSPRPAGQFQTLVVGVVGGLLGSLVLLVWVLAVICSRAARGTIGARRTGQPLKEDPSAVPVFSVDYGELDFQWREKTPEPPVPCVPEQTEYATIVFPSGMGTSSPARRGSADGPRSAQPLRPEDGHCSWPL

pull down of PD-1 [2, 7]: pulled down | pull down of endogenous PD-1 [2, 8]: found | pull down of endogenous DD1α receptor [3, 8]: detected | binding to TIM-3 transfectants [5]: not to PD-L1 or TIM-3 transfectants | binding to PD-1-transfected 293T cells [6]: specifically bound
Substance: DD1α-Ig: the extracellular region of DD1α fused with the immunoglobulin G Fc segment
binding to the surface of DD1α−/− CD4+ T cells compared with wt-CD4+ T cells [1]: significantly lower | pull down of DD1α [3, 7]: pulled down | binding to DD1α-transfected 293T cells [4]: specifically bound
